This is an account of results in US20240300932A1, “N-PHENYLIMINE DERIVATIVE AND PREPARATION METHOD AND USE THEREOF” (Guizhou University, priority 2023, published 2024).

What all share (assay): Post-emergence herbicidal activity test (stem and leaf spray, pot culture)
Common to all, as to assay type: in vivo
Holding throughout (settings): 3 weeks after spraying

For test [1], the system named is Setaria viridis. An outline of the steps: (§1)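 Activity is given as a 0–5 grade of fresh weight growth control, scored three weeks after a single stem-and-leaf spray. Weeds in farmland loam were treated at the 2- to 3-leaf stage at 10, 5 and 2.5 g/mu, with methyl oleate added as synergist.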
Test [2] relates to Portulaca oleracea. The method in brief:
as §1

Test [3] has as its system Amaranthus retroflexus. An outline of the steps: as §1
In test [4] the test system is Abutilon theophrasti. The method in brief:
as §1

For test [5], the system named is Echinochloa crusgalli. The method in brief: as §1
Test [6] relates to Trifoliumre pensL. The method in brief:
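Pot-grown weeds in loam (pH 7), greenhouse at 20–30 °C, sprayed once post-emergence at the 2–3-leaf stage. Compound in acetone with Tween 80 plus methyl oleate oil (1.5 L/ha), applied at 10, 5 and 2.5 g/mu by spray tower. Effect scored 3 weeks after spraying, averaged over three repeats.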

For `O=C1C2=C(CCCC2)C(=O)N1c1cc(OCc2nc(-c3ccccc3Cl)no2)c(Cl)cc1F` [Compound A8], the “Post-emergence herbicidal activity, S. viridis (grade)” value in test [1] (dosage 2.5 g/mu) is 2 (Grade 2: the growth control rate is greater than or equal to 20% and less than 40%); in test [1] (dosage 5 g/mu), 3 (Grade 3: the growth control rate is greater than or equal to 40% and less than 60%); in test [1] (dosage 10 g/mu), 4 (Grade 4: the growth control rate is greater than or equal to 60% and less than 85%). Also, the “Post-emergence herbicidal activity, P. oleracea (grade)” value was 4 (Grade 4: the growth control rate is greater than or equal to 60% and less than 85%) in test [2] (dosage 2.5 g/mu); 5 (Grade 5: the growth control rate is greater than or equal to 85%) in test [2] (dosage 5 g/mu); 5 (Grade 5: the growth control rate is greater than or equal to 85%) in test [2] (dosage 10 g/mu). Also, the “Post-emergence herbicidal activity, A. retroflexus (grade)” value in test [3] (dosage 2.5 g/mu), in test [3] (dosage 5 g/mu) and in test [3] (dosage 10 g/mu) was 5 (Grade 5: the growth control rate is greater than or equal to 85%) each time. For the same compound, the “Post-emergence herbicidal activity, A. theophrasti (grade)” value in test [4] (dosage 2.5 g/mu), in test [4] (dosage 5 g/mu) and in test [4] (dosage 10 g/mu) was 5 (Grade 5: the growth control rate is greater than or equal to 85%) each time. The “Post-emergence herbicidal activity, E. crusgalli (grade)” value in test [5] (dosage 2.5 g/mu) is 1 (Grade 1: the growth control rate is greater than or equal to 5% and less than 20%); in test [5] (dosage 5 g/mu), 2 (Grade 2: the growth control rate is greater than or equal to 20% and less than 40%); in test [5] (dosage 10 g/mu), 3 (Grade 3: the growth control rate is greater than or equal to 40% and less than 60%). Moreover, the “Post-emergence herbicidal activity, Trifoliumre pensL. (grade)” value in test [6] (dosage 2.5 g/mu) was 4 (Grade 4: the growth control rate is greater than or equal to 60% and less than 85%); in test [6] (dosage 5 g/mu) it was 5 (Grade 5: the growth control rate is greater than or equal to 85%); in test [6] (dosage 10 g/mu) it was 5 (Grade 5: the growth control rate is greater than or equal to 85%).

Turning to `Cc1ccc(-c2noc(COc3cc(N4C(=O)C5=C(CCCC5)C4=O)c(F)cc3Cl)n2)c(F)c1` [Compound A9], the “Post-emergence herbicidal activity, S. viridis (grade)” value in test [1] (dosage 2.5 g/mu) is 2 (Grade 2: the growth control rate is greater than or equal to 20% and less than 40%); in test [1] (dosage 5 g/mu), 3 (Grade 3: the growth control rate is greater than or equal to 40% and less than 60%); in test [1] (dosage 10 g/mu), 4 (Grade 4: the growth control rate is greater than or equal to 60% and less than 85%). Moreover, the “Post-emergence herbicidal activity, P. oleracea (grade)” value in test [2] (dosage 2.5 g/mu) was 4 (Grade 4: the growth control rate is greater than or equal to 60% and less than 85%); in test [2] (dosage 5 g/mu), 5 (Grade 5: the growth control rate is greater than or equal to 85%); in test [2] (dosage 10 g/mu), 5 (Grade 5: the growth control rate is greater than or equal to 85%). Further, the “Post-emergence herbicidal activity, A. retroflexus (grade)” value in test [3] (dosage 2.5 g/mu), in test [3] (dosage 5 g/mu) and in test [3] (dosage 10 g/mu) was 5 (Grade 5: the growth control rate is greater than or equal to 85%) each time. Moreover, the “Post-emergence herbicidal activity, A. theophrasti (grade)” value in test [4] (dosage 2.5 g/mu), in test [4] (dosage 5 g/mu) and in test [4] (dosage 10 g/mu) was 5 (Grade 5: the growth control rate is greater than or equal to 85%) each time. For the same compound, the “Post-emergence herbicidal activity, E. crusgalli (grade)” value was 1 (Grade 1: the growth control rate is greater than or equal to 5% and less than 20%) in test [5] (dosage 2.5 g/mu); 2 (Grade 2: the growth control rate is greater than or equal to 20% and less than 40%) in test [5] (dosage 5 g/mu); 3 (Grade 3: the growth control rate is greater than or equal to 40% and less than 60%) in test [5] (dosage 10 g/mu). Further, the “Post-emergence herbicidal activity, Trifoliumre pensL. (grade)” value in test [6] (dosage 2.5 g/mu) was 4 (Grade 4: the growth control rate is greater than or equal to 60% and less than 85%); in test [6] (dosage 5 g/mu), 5 (Grade 5: the growth control rate is greater than or equal to 85%); in test [6] (dosage 10 g/mu), 5 (Grade 5: the growth control rate is greater than or equal to 85%).

Consider `O=C1C2=C(CCCC2)C(=O)N1c1cc(OCc2nc(-c3cnc(C(F)(F)F)cc3Cl)no2)c(Cl)cc1F` [Compound A10], for which the “Post-emergence herbicidal activity, S. viridis (grade)” value in test [1] (dosage 2.5 g/mu) was 2 (Grade 2: the growth control rate is greater than or equal to 20% and less than 40%); in test [1] (dosage 5 g/mu) it was 3 (Grade 3: the growth control rate is greater than or equal to 40% and less than 60%); in test [1] (dosage 10 g/mu), 4 (Grade 4: the growth control rate is greater than or equal to 60% and less than 85%). For the same compound, the “Post-emergence herbicidal activity, P. oleracea (grade)” value in test [2] (dosage 2.5 g/mu) is 4 (Grade 4: the growth control rate is greater than or equal to 60% and less than 85%); in test [2] (dosage 5 g/mu), 5 (Grade 5: the growth control rate is greater than or equal to 85%); in test [2] (dosage 10 g/mu), 5 (Grade 5: the growth control rate is greater than or equal to 85%). For the same compound, the “Post-emergence herbicidal activity, A. retroflexus (grade)” value in test [3] (dosage 2.5 g/mu), in test [3] (dosage 5 g/mu) and in test [3] (dosage 10 g/mu) was 5 (Grade 5: the growth control rate is greater than or equal to 85%) each time. Also, the “Post-emergence herbicidal activity, A. theophrasti (grade)” value in test [4] (dosage 2.5 g/mu), in test [4] (dosage 5 g/mu) and in test [4] (dosage 10 g/mu) was 5 (Grade 5: the growth control rate is greater than or equal to 85%) in each case. The “Post-emergence herbicidal activity, E. crusgalli (grade)” value in test [5] (dosage 2.5 g/mu) was 1 (Grade 1: the growth control rate is greater than or equal to 5% and less than 20%); in test [5] (dosage 5 g/mu) it was 2 (Grade 2: the growth control rate is greater than or equal to 20% and less than 40%); in test [5] (dosage 10 g/mu), 3 (Grade 3: the growth control rate is greater than or equal to 40% and less than 60%). The “Post-emergence herbicidal activity, Trifoliumre pensL. (grade)” value in test [6] (dosage 2.5 g/mu) is 4 (Grade 4: the growth control rate is greater than or equal to 60% and less than 85%); in test [6] (dosage 5 g/mu) it was 5 (Grade 5: the growth control rate is greater than or equal to 85%); in test [6] (dosage 10 g/mu), 5 (Grade 5: the growth control rate is greater than or equal to 85%).

With `O=C1C2=C(CCCC2)C(=O)N1c1cc(OCc2nc(-c3ccc(Br)cc3Br)no2)c(Cl)cc1F` [Compound A11], the “Post-emergence herbicidal activity, S. viridis (grade)” value is 2 (Grade 2: the growth control rate is greater than or equal to 20% and less than 40%) in test [1] (dosage 2.5 g/mu); 3 (Grade 3: the growth control rate is greater than or equal to 40% and less than 60%) in test [1] (dosage 5 g/mu); 4 (Grade 4: the growth control rate is greater than or equal to 60% and less than 85%) in test [1] (dosage 10 g/mu). Further, the “Post-emergence herbicidal activity, P. oleracea (grade)” value in test [2] (dosage 2.5 g/mu) is 4 (Grade 4: the growth control rate is greater than or equal to 60% and less than 85%); in test [2] (dosage 5 g/mu), 5 (Grade 5: the growth control rate is greater than or equal to 85%); in test [2] (dosage 10 g/mu) it was 5 (Grade 5: the growth control rate is greater than or equal to 85%). Besides, the “Post-emergence herbicidal activity, A. retroflexus (grade)” value in test [3] (dosage 2.5 g/mu), in test [3] (dosage 5 g/mu) and in test [3] (dosage 10 g/mu) was 5 (Grade 5: the growth control rate is greater than or equal to 85%) each time. In addition, the “Post-emergence herbicidal activity, A. theophrasti (grade)” value in test [4] (dosage 2.5 g/mu), in test [4] (dosage 5 g/mu) and in test [4] (dosage 10 g/mu) was 5 (Grade 5: the growth control rate is greater than or equal to 85%) each time. Further, the “Post-emergence herbicidal activity, E. crusgalli (grade)” value in test [5] (dosage 2.5 g/mu) was 1 (Grade 1: the growth control rate is greater than or equal to 5% and less than 20%); in test [5] (dosage 5 g/mu), 2 (Grade 2: the growth control rate is greater than or equal to 20% and less than 40%); in test [5] (dosage 10 g/mu), 3 (Grade 3: the growth control rate is greater than or equal to 40% and less than 60%). Besides, the “Post-emergence herbicidal activity, Trifoliumre pensL. (grade)” value in test [6] (dosage 2.5 g/mu) is 4 (Grade 4: the growth control rate is greater than or equal to 60% and less than 85%); in test [6] (dosage 5 g/mu), 5 (Grade 5: the growth control rate is greater than or equal to 85%); in test [6] (dosage 10 g/mu), 5 (Grade 5: the growth control rate is greater than or equal to 85%).
